Experimental data taken from paper PMC11277489, “Novel Piperazine Derivatives of Vindoline as Anticancer Agents” (International Journal of Molecular Sciences, 2024).
Where two headings read alike, the source gives them in different places.

Legend:
CCRF-CEM = experiment: NCI60 one-dose screen (10 μM), Leukemia; format: cell-based; details: Homo sapiens, read-out: Growth percent rate
HL-60(TB) = experiment: NCI60 one-dose screen (10 μM), Leukemia; format: cell-based; details: Homo sapiens
K-562 = experiment: NCI60 one-dose screen (10 μM), Leukemia; format: cell-based; details: Homo sapiens
MOLT-4 = experiment: NCI60 one-dose screen (10 μM), Leukemia; format: cell-based, human; details: Homo sapiens
RPMI-8226 = experiment: NCI60 one-dose screen (10 μM), Leukemia; format: cell-based; details: Homo sapiens
A549/ATCC = experiment: NCI60 one-dose screen (10 μM), Non-small Cell Lung Cancer; format: cell-based; details: Homo sapiens
HOP-62 = experiment: as above; format: cell-based; details: Homo sapiens
NCI-H322M = experiment: as above; format: cell-based; details: Homo sapiens, read-out: Growth percent rate
NCI-H460 = experiment: as above; format: cell-based; details: Homo sapiens
NCI-H522 = experiment: as above; format: cell-based; details: Homo sapiens
COLO 205 = experiment: NCI60 one-dose screen (10 μM), Colon Cancer; format: cell-based, human; details: Homo sapiens
HCT-116 = experiment: NCI60 one-dose screen (10 μM), Colon Cancer; format: cell-based; details: Homo sapiens
HCT-15 = experiment: NCI60 one-dose screen (10 μM), Colon Cancer; format: cell-based; details: Homo sapiens
HT29 = experiment: NCI60 one-dose screen (10 μM), Colon Cancer; format: cell-based; details: Homo sapiens
KM12 = experiment: NCI60 one-dose screen (10 μM), Colon Cancer; format: cell-based, human; details: Homo sapiens
SW-620 = experiment: NCI60 one-dose screen (10 μM), Colon Cancer; format: cell-based; details: Homo sapiens
SF-268 = experiment: NCI60 one-dose screen (10 μM), CNS Cancer; format: cell-based; details: Homo sapiens
SF-295 = experiment: NCI60 one-dose screen (10 μM), CNS Cancer; format: cell-based; details: Homo sapiens
SF-539 = experiment: NCI60 one-dose screen (10 μM), CNS Cancer; format: cell-based, human; details: Homo sapiens
SNB-19 = experiment: NCI60 one-dose screen (10 μM), CNS Cancer; format: cell-based; details: Homo sapiens
SNB-75 = experiment: NCI60 one-dose screen (10 μM), CNS Cancer; format: cell-based, human; details: Homo sapiens
U251 = experiment: NCI60 one-dose screen (10 μM), CNS Cancer; format: cell-based; details: Homo sapiens
LOX IMVI = experiment: NCI60 one-dose screen (10 μM), Melanoma; format: cell-based, human; details: Homo sapiens, LOX IMVI, read-out: Growth percent rate
MALME-3M = experiment: NCI60 one-dose screen (10 μM), Melanoma; format: cell-based; details: Homo sapiens, read-out: Growth percent rate
M14 = experiment: NCI60 one-dose screen (10 μM), Melanoma; format: cell-based; details: Homo sapiens
SK-MEL-2 = experiment: NCI60 one-dose screen (10 μM), Melanoma; format: cell-based; details: Homo sapiens
SK-MEL-28 = experiment: NCI60 one-dose screen (10 μM), Melanoma; format: cell-based; details: Homo sapiens
SK-MEL-5 = experiment: NCI60 one-dose screen (10 μM), Melanoma; format: cell-based, human; details: Homo sapiens
UACC-257 = experiment: NCI60 one-dose screen (10 μM), Melanoma; format: cell-based; details: Homo sapiens
IGROV1 = experiment: NCI60 one-dose screen (10 μM), Ovarian Cancer; format: cell-based; details: Homo sapiens
OVCAR-3 = experiment: NCI60 one-dose screen (10 μM), Ovarian Cancer; format: cell-based; details: Homo sapiens
OVCAR-8 = experiment: NCI60 one-dose screen (10 μM), Ovarian Cancer; format: cell-based; details: Homo sapiens
786–0 = experiment: NCI60 one-dose screen (10 μM), Renal Cancer; format: cell-based; details: Homo sapiens
A498 = experiment: NCI60 one-dose screen (10 μM), Renal Cancer; format: cell-based; details: Homo sapiens
ACHN = experiment: NCI60 one-dose screen (10 μM), Renal Cancer; format: cell-based; details: Homo sapiens, read-out: Growth percent rate
RXF 393 = experiment: NCI60 one-dose screen (10 μM), Renal Cancer; format: cell-based, human; details: Homo sapiens
SN12C = experiment: NCI60 one-dose screen (10 μM), Renal Cancer; format: cell-based; details: Homo sapiens, read-out: Growth percent rate
TK-10 = experiment: NCI60 one-dose screen (10 μM), Renal Cancer; format: cell-based; details: Homo sapiens
DU-145 = experiment: NCI60 one-dose screen (10 μM), Prostate Cancer; format: cell-based; details: Homo sapiens
MCF7 = experiment: NCI60 one-dose screen (10 μM), Breast Cancer; format: cell-based; details: Homo sapiens
HS 578T = experiment: NCI60 one-dose screen (10 μM), Breast Cancer; format: cell-based; details: Homo sapiens, read-out: Growth percent rate
[1] = test system: 60 human tumor cell lines (NCI60); experiment: NCI60 one-dose screen (10 μM), whole panel; format: cell-based; details: read-out: Growth percent rate, Mean

CCC12C=CCN3CCC4(c5cc(NC(=O)CN6CCN(Cc7ccc(C(F)(F)F)cc7)CC6)c(OC)cc5N(C)C4C(O)(C(=O)OC)C1OC(C)=O)C32 (stereo not drawn) [Compound 18]
activity at 10 µM (CCRF-CEM): 39.4%
activity at 10 µM (HL-60(TB); HL-60, read-out: Growth percent rate): 42.6%
activity at 10 µM (K-562; K562, read-out: Growth percent rate): 43.8%
activity at 10 µM (MOLT-4; MOLT-4, read-out: Growth percent rate): 16.7%
activity at 10 µM (RPMI-8226; RPMI-8226, read-out: Growth percent rate): 17.4%
activity at 10 µM (A549/ATCC; A549, read-out: Growth percent rate): 54.1%
activity at 10 µM (HOP-62; HOP-62, read-out: Growth percent rate): 86.1%
activity at 10 µM (NCI-H322M): 64.6%
activity at 10 µM (NCI-H460; NCI-H460, read-out: Growth percent rate): 62.1%
activity at 10 µM (NCI-H522; NCI-H522, read-out: Growth percent rate): 55.2%
activity at 10 µM (COLO 205; COLO 205, read-out: Growth percent rate): 56.5%
activity at 10 µM (HCT-116; HCT-116, read-out: Growth percent rate): 46.4%
activity at 10 µM (HCT-15; HCT-15, read-out: Growth percent rate): 49.7%
activity at 10 µM (HT29; HT-29, read-out: Growth percent rate): 39.3%
activity at 10 µM (KM12; KM12, read-out: Growth percent rate): 83%
activity at 10 µM (SW-620; SW-620, read-out: Growth percent rate): 87%
activity at 10 µM (SF-268; SF-268, read-out: Growth percent rate): 65.2%
activity at 10 µM (SF-295; SF-295, read-out: Growth percent rate): 75.4%
activity at 10 µM (SF-539; SF-539, read-out: Growth percent rate): 73.1%
activity at 10 µM (SNB-19; SNB-19, read-out: Growth percent rate): 47.4%
activity at 10 µM (SNB-75; SNB-75, read-out: Growth percent rate): 20.3%
activity at 10 µM (U251; U-251, read-out: Growth percent rate): 74.8%
activity at 10 µM (LOX IMVI): 58.4%
activity at 10 µM (MALME-3M; Malme-3M): 73.3%
activity at 10 µM (M14; M14, read-out: Growth percent rate): 67.2%
activity at 10 µM (SK-MEL-2; SK-MEL-2, read-out: Growth percent rate): 72.9%
activity at 10 µM (SK-MEL-28; SK-MEL-28, read-out: Growth percent rate): 90.8%
activity at 10 µM (SK-MEL-5; SK-MEL-5, read-out: Growth percent rate): 21.2%
activity at 10 µM (UACC-257; UACC-257, read-out: Growth percent rate): 80.6%
activity at 10 µM (IGROV1; IGROV-1, read-out: Growth percent rate): 71.3%
activity at 10 µM (OVCAR-3; OVCAR-3, read-out: Growth percent rate): 84.5%
activity at 10 µM (OVCAR-8; OVCAR-8, read-out: Growth percent rate): 72%
activity at 10 µM (786–0; 786-0, read-out: Growth percent rate): 75.5%
activity at 10 µM (A498; A498, read-out: Growth percent rate): 78.7%
activity at 10 µM (ACHN): 67.3%
activity at 10 µM (RXF 393; RXF 393, read-out: Growth percent rate): 41%
activity at 10 µM (SN12C): 59.3%
activity at 10 µM (TK-10; TK-10, read-out: Growth percent rate): 81.5%
activity at 10 µM (DU-145; DU-145, read-out: Growth percent rate): 71.6%
activity at 10 µM (MCF7; MCF7, read-out: Growth percent rate): 32.6%
activity at 10 µM (HS 578T; Hs-578T): 62.5%
activity at 10 µM ([1]; Homo sapiens): 60.6%

CC[C@]12C=CCN3CC[C@@]4(c5ccc(OC)cc5N(C)[C@H]4[C@@](O)(C(=O)OC)[C@@H]1OC(=O)CCCN1CCN(Cc4ccc(F)cc4)CC1)[C@@H]32 [Compound 24]
activity at 10 µM (CCRF-CEM; 10 μM, Leukemia): 12.7%
activity at 10 µM (HL-60(TB); 10 μM, HL-60(TB), Leukemia, read-out: Growth percent rate): 7.68%
activity at 10 µM (K-562; K562, 10 μM, K-562, Leukemia, read-out: Growth percent rate): 0.4%
activity at 10 µM (MOLT-4; 10 μM, MOLT-4, Leukemia, read-out: Growth percent rate): 6.28%
activity at 10 µM (RPMI-8226; 10 μM, RPMI-8226, Leukemia, read-out: Growth percent rate): 20.1%
activity at 10 µM (A549/ATCC; 10 μM, A549/ATCC, Non-small Cell Lung Cancer, read-out: Growth percent rate): 51.2%
activity at 10 µM (HOP-62; 10 μM, HOP-62, Non-small Cell Lung Cancer, read-out: Growth percent rate): 70.1%
activity at 10 µM (NCI-H322M; 10 μM, Non-small Cell Lung Cancer): 71.7%
activity at 10 µM (NCI-H460; 10 μM, NCI-H460, Non-small Cell Lung Cancer, read-out: Growth percent rate): 30.6%
activity at 10 µM (NCI-H522; 10 μM, NCI-H522, Non-small Cell Lung Cancer, read-out: Growth percent rate): 27.3%
activity at 10 µM (COLO 205; 10 μM, COLO 205, Colon Cancer, read-out: Growth percent rate): -59.6%
activity at 10 µM (HCT-116; 10 μM, HCT-116, Colon Cancer, read-out: Growth percent rate): 24.1%
activity at 10 µM (HCT-15; 10 μM, HCT-15, Colon Cancer, read-out: Growth percent rate): 15.7%
activity at 10 µM (HT29; HT-29, 10 μM, HT29, Colon Cancer, read-out: Growth percent rate): 1.44%
activity at 10 µM (KM12; 10 μM, KM12, Colon Cancer, read-out: Growth percent rate): 45.7%
activity at 10 µM (SW-620; 10 μM, SW-620, Colon Cancer, read-out: Growth percent rate): 64.3%
activity at 10 µM (SF-268; 10 μM, SF-268, CNS Cancer, read-out: Growth percent rate): 42.5%
activity at 10 µM (SF-295; 10 μM, SF-295, CNS Cancer, read-out: Growth percent rate): 70.2%
activity at 10 µM (SF-539; 10 μM, SF-539, CNS Cancer, read-out: Growth percent rate): 14.7%
activity at 10 µM (SNB-19; 10 μM, SNB-19, CNS Cancer, read-out: Growth percent rate): 49.1%
activity at 10 µM (SNB-75; 10 μM, SNB-75, CNS Cancer, read-out: Growth percent rate): -0.13%
activity at 10 µM (U251; U-251, 10 μM, U251, CNS Cancer, read-out: Growth percent rate): 40.3%
activity at 10 µM (LOX IMVI; 10 μM, Melanoma): 5.04%
activity at 10 µM (MALME-3M; 10 μM, MALME-3M, Melanoma): -97.2%
activity at 10 µM (M14; 10 μM, M14, Melanoma, read-out: Growth percent rate): -77.9%
activity at 10 µM (SK-MEL-2; 10 μM, SK-MEL-2, Melanoma, read-out: Growth percent rate): -26.1%
activity at 10 µM (SK-MEL-28; 10 μM, SK-MEL-28, Melanoma, read-out: Growth percent rate): -45.3%
activity at 10 µM (SK-MEL-5; 10 μM, SK-MEL-5, Melanoma, read-out: Growth percent rate): -98.3%
activity at 10 µM (UACC-257; 10 μM, UACC-257, Melanoma, read-out: Growth percent rate): -72.7%
activity at 10 µM (IGROV1; IGROV-1, 10 μM, IGROV1, Ovarian Cancer, read-out: Growth percent rate): 25.1%
activity at 10 µM (OVCAR-3; 10 μM, OVCAR-3, Ovarian Cancer, read-out: Growth percent rate): 50.6%
activity at 10 µM (OVCAR-8; 10 μM, OVCAR-8, Ovarian Cancer, read-out: Growth percent rate): 66%
activity at 10 µM (786–0; 10 μM, 786-0, Renal Cancer, read-out: Growth percent rate): 31.4%
activity at 10 µM (A498; 10 μM, A498, Renal Cancer, read-out: Growth percent rate): 58.3%
activity at 10 µM (ACHN; 10 μM, Renal Cancer): 33.7%
activity at 10 µM (RXF 393; 10 μM, RXF 393, Renal Cancer, read-out: Growth percent rate): -8.13%
activity at 10 µM (SN12C; 10 μM, Renal Cancer): 43.9%
activity at 10 µM (TK-10; 10 μM, TK-10, Renal Cancer, read-out: Growth percent rate): 42.6%
activity at 10 µM (DU-145; 10 μM, DU-145, Prostate Cancer, read-out: Growth percent rate): 39.5%
activity at 10 µM (MCF7; 10 μM, MCF7, Breast Cancer, read-out: Growth percent rate): 6.31%
activity at 10 µM (HS 578T; 10 μM, HS 578T, Breast Cancer): 56.4%
activity at 10 µM ([1]; 10 μM, mean over 60 human cancer cell lines): 20.4%
